Drawing on US20130231303A1, “5-HALOGENOPYRAZOLE(THIO)CARBOXAMIDES” (Bayer Intellectual Property GmbH, priority 2010, published 2013), this text covers Efficacy, logP and protection for four compounds.

One data set has as its system Sphaerotheca fuliginea. The data set is described as follows: Sphaerotheca test (cucumber)/preventive. The format is in vivo. The following applies: preventive, 500 ppm, evaluated 7 days after inoculation. The method, then: Then the plants are placed in a greenhouse at approximately 23° C. and a relative atmospheric humidity of approximately 70%.
In a further data set the test system is Venturia inaequalis. The data set is described as follows: Venturia test (apples)/preventive. Format: in vivo. The following applies: preventive, 100 ppm, evaluated 10 days after inoculation. The method, then: Venturia Test (Apples)/Preventive […] After the spray coating has dried on, the plants are inoculated with an aqueous conidia suspension of the causal agent of apple scab (Venturia inaequalis) and then remain for 1 day in an incubation cabinet at approximately 20° C. and a relative atmospheric humidity of 100%.

In the next data set the test system is Uromyces appendiculatus. The data set is described as follows: Uromyces test (beans)/preventive. Format: in vivo. The settings on record: preventive, 100 ppm, evaluated 10 days after inoculation. From the text:
Uromyces Test (Beans)/Preventive

A further data set deals with Puccinia recondita. Nature of the data set: Puccinia test (wheat)/preventive. Format: in vivo. The settings on record: preventive, 500 ppm, evaluated 7-9 days after inoculation. The method, then: (§1) The plants remain for 48 hours in an incubation cabinet at 22° C. and a relative atmospheric humidity of 100%. Then the plants are placed in a greenhouse at a temperature of approximately 20° C. and a relative atmospheric humidity of approximately 80%.

The subject of another data set is Alternaria solani. Nature of the data set: Alternaria test (tomato)/preventive. The following applies: preventive, 500 ppm, evaluated 7 days after inoculation. The format is in vivo. The method, then:
The plants remain for one day in an incubation cabinet at approximately 22° C. and a relative atmospheric humidity of 100%. Then the plants are placed in an incubation cabinet at approximately 20° C. and a relative atmospheric humidity of 96%.

Data set [1] in a line: logP by HPLC on reversed-phase column (EEC Directive 79/831 Annex V.A8). The format is physicochemical. The following applies: HPLC, reversed-phase C 18, 40° C., 0.1% aqueous formic acid and acetonitrile gradient. The method, then:
In table 1, the logP values were determined in accordance with EEC Directive 79/831 Annex V.A8 by HPLC (High Performance Liquid Chromatography) on a reversed-phase column (C 18), using the method described below: Temperature: 40° C.; Mobile phases: 0.1% aqueous formic acid and acetonitrile; linear gradient from 10% acetonitrile to 90% acetonitrile. Calibration was carried out using unbranched alkan-2-ones (comprising 3 to 16 carbon atoms) with known logP values (determination of the logP values by the retention times using linear interpolation between two successive alkanones). lambda-max-values were determined using UV-spectra from 200 nm to 400 nm and the peak values of the chromatographic signals.

The test system of another data set is Pyrenophora teres. The data set is described as follows: Pyrenophora test (barley)/preventive. Format: in vivo. The following applies: preventive, 500 ppm, evaluated 7-9 days after inoculation. As to the method:
as §1

Data set [2] has as its system Blumeria graminis f.sp. hordei. Nature of the data set: Blumeria test (barley)/preventive. The following applies: preventive, 500 ppm, evaluated 7 days after inoculation. Format: in vivo. The method, then:
After the spray coating has been dried, the plants are dusted with spores of Blumeria graminis f.sp. hordei. The plants are placed in the greenhouse at a temperature of approximately 18° C. and a relative atmospheric humidity of approximately 80% to promote the development of mildew pustules.

Data set [3] has as its system Fusarium nivale (var. majus). Nature of the data set: Fusarium nivale (var. majus)-test (wheat)/preventive. The format is in vivo. The following applies: preventive; for Efficacy: evaluated 5 days after inoculation. The method, then: After the spray coating has been dried, the plants are slightly injured by using a sandblast and afterwards they are sprayed with a conidia suspension of Fusarium nivale (var. majus). The plants are placed in the greenhouse under a translucent incubation cabinet at a temperature of approximately 10° C. and a relative atmospheric humidity of approximately 100%.

The subject of another data set is Botrytis cinerea. Nature of the data set: Botrytis test (beans)/preventive. The format is in vivo. The following applies: preventive, 100 ppm, lesion size 2 days after inoculation. As to the method: Botrytis Test (Beans)/Preventive
• Solvent: 24.5 parts by weight of acetone • 24.5 parts by weight of N,N-dimethylformamide • Emulsifier: 1 part by weight of alkylaryl polyglycol ether
After the spray coating has dried on, 2 small pieces of agar covered with growth of Botrytis cinerea are placed on each leaf. The inoculated plants are placed in a darkened chamber at 20° C. and a relative atmospheric humidity of 100%.
2 days after the inoculation, the size of the lesions on the leaves is evaluated.

The subject of another data set is Phakopsora pachyrhizi. The data set is described as follows: Phakopsora test (soybeans)/protective. The following applies: protective, 250 ppm, evaluated 11 days after inoculation. The format is in vivo. From the text:
Phakopsora Test (Soybeans)/Protective

A further data set has as its system Rhizoctonia solani. Nature of the data set: Rhizoctonia test (rice)/protective. The format is in vivo. The settings on record: protective, 250 ppm, evaluated 4 days after inoculation. From the text: Rhizoctonia Test (Rice)/Protective
The test system of a further data set is Pyricularia oryzae. Format: in vivo. The following applies: rice, protective, 250 ppm, evaluated 5 days after inoculation.
Another data set deals with Cochliobolus miyabeanus. Nature of the data set: Cochliobolus test (rice)/protective. The settings on record: protective, 250 ppm, evaluated 4 days after inoculation.

Description for Cochliobolus miyabeanus: • Solvent: 28.5 parts by weight of acetone • Emulsifier: 1.5 part by weight of alkylaryl polyglycol ether
1 day after the treatment, the plants are inoculated with an aqueous spore suspension of Cochliobolus miyabeanus. The plants are then placed in a greenhouse at a relative atmospheric humidity of 100% and a temperature of 25° C.
Evaluation is carried out 4 days after the inoculation.

Regarding `Cn1nc(C(F)F)c(C(=O)Nc2ccsc2CC[Si](C)(C)C)c1F` [Example 19], the Efficacy in the data set on Sphaerotheca fuliginea is 100%; with Venturia inaequalis, 99%; in the data set with Uromyces appendiculatus it was 100%; in the data set on Puccinia recondita, 100%; in the data set on Alternaria solani, 90%; in the data set on Pyrenophora teres, 100%. Besides, the Efficacy (in [2]; in data set [3] (500 ppm); with Botrytis cinerea) was 100% throughout. The logP in [1] stood at 4.06.

For the compound `CC(C)CC(C)c1sccc1NC(=O)c1c(C(F)F)nn(C)c1F` (stereo not shown) [Example 4], the Efficacy with Sphaerotheca fuliginea, with Venturia inaequalis, in the data set with Uromyces appendiculatus, in the data set on Puccinia recondita, in the data set on Alternaria solani and in the data set with Pyrenophora teres was 100% each time. Further, the Efficacy in [2] was 100%; in the data set on Phakopsora pachyrhizi, 99%; with Botrytis cinerea, 97%. For the same compound, the logP in data set [1] is reported as 3.94.

As to `Cn1nc(C(F)F)c(C(=O)Nc2ccsc2CC[Si](C)(C)C)c1Cl` [Example 18], the Efficacy in the data set on Sphaerotheca fuliginea stood at 98%; in the data set on Venturia inaequalis, 94%; in the data set on Uromyces appendiculatus, 100%; in the data set on Puccinia recondita, 100%; in the data set on Alternaria solani it was 80%; in the data set with Pyrenophora teres, 100%. The Efficacy in data set [2] was determined as 92%; in data set [3] (500 ppm), 100%; in the data set on Botrytis cinerea, 91%. The logP in [1] was found to be 4.30.

`CC(C)CC(C)c1sccc1NC(=O)c1c(C(F)F)nn(C)c1Cl` (stereo not shown) [Example 3]: the Efficacy with Sphaerotheca fuliginea was 96%; in the data set on Venturia inaequalis it was 100%; with Uromyces appendiculatus, 100%; with Puccinia recondita, 100%; in the data set with Rhizoctonia solani, 100%; with Alternaria solani it was 100%. The Efficacy came to 97% in the data set on Pyricularia oryzae; 100% in the data set with Pyrenophora teres; 100% in data set [2]; 97% with Cochliobolus miyabeanus; 86% in data set [3] (250 ppm); 100% in [3] (500 ppm). Besides, the Efficacy in the data set on Phakopsora pachyrhizi and in the data set with Botrytis cinerea was 98% in each case. Moreover, the logP in [1] is on record as 4.19. Also, in data set [3] (dose of 250 ppm and 500 ppm (text summary of table G2)), the protection entry is recorded as “at least 80%”.

For orientation: logP means a log measure of how a compound divides between an organic and an aqueous phase. Read a low logP as a more hydrophilic compound.
